# Where two headings read alike, the source gives them in different places. Marks after values point to notes of the source that are not given here. Numbered stars: 1 amine (or outer) side, 2 acyl side, 3 side chain; on linkers, the order of the positions; unused ones are H or OH. Square brackets hold non-standard residues; d marks the D form. Peptide text beside a SMILES is read from it. * marks the point of attachment. ξ: configuration not given here. X1 = NCC(O)CCC(N[*:1])C(=O)[*:2]; ΔZArg = N=C(N)NCC/C=C(\N)C(=O)O; ξDab(3-OH) = NCC(O)C(N)C(=O)O; Orn = NCCC[CH](N)C(=O)O; NH(CH2)4NH2 = NCCCCN*
# Tests used:
# K. pneumoniae ATCC 43816 = assay type: cell-based, Klebsiella pneumoniae; conditions: for MIC antibiotic alone: K. pneumoniae ATCC 43816, checkerboard, ~10^4 CFU/mL; for Combinations Odilomycin/antibiotic: Odilomycin concentration: Odilomycin A part of the inhibitory combination with the labelled antibiotic
# Source text: (§1) Vancomycin, rifampicin, kanamycin, gentamicin, ampicillin, ciprofloxacin and tetracycline (Sigma-Aldrich) were provided as standard powders by the manufacturers.
# S. aureus ATCC 25923 = assay type: cell-based, Staphylococcus aureus; conditions: for MIC antibiotic alone: S. aureus ATCC 25923, checkerboard, ~10^4 CFU/mL
# Source text: as §1
# S. aureus ATCC 13709 = assay type: cell-based, Staphylococcus aureus; conditions: ATCC 13709, 24 h
# Procedure: (§2) Minimal bactericidal concentrations (MBCs) were established by extending the MIC procedure to the evaluation of bactericidal activity. After 24 hours, 10 μL were drawn from the wells, serially diluted and then spotted onto suitable agar plates. The plates were incubated at 37° C. overnight. […] All the experiments were done in triplicate.
# P. aeruginosa ATCC 27853 [1] = assay type: cell-based, Pseudomonas aeruginosa; conditions: ATCC 27853, 24 h
# Procedure: as §2
# Cytotoxicity test (MTS) = assay type: cell-based; conditions: human; for CC50 at 72 h: MTS; for viability at 72 h: dose of up to 100 μg/mL, read-out: cell viability
# Procedure: The cytotoxicity of the Odilomycins A-C was investigated against Human colon adenocarcinoma (HT29) cells and Human normal lung fibroblasts (MRC-5) cells. 200 μL of the cell suspension of HT29 (human colorectal adenocarcinoma) prepared in RPMI 1640+1% L-Glutamine supplemented with 10% (v/v) fetal calf serum and 200 μL of the cell suspension of MRC5 (human lung fibroblast) prepared in Dulbecco's modified Eagle's medium supplemented with 25 mM glucose and 10% (v/v) fetal calf serum were inoculated into 96-well plates.
# The inoculating cell number was 800 cells per well for HT29 and 2100 cells per well for MRC-5. The microplates were incubated at 37° C. for 24 h with 5% of CO2.
# Twenty four hours later, Odilomycin A, B or C dissolved in water were added for 72 h at a final concentration from 0.78 μg/mL to 100 μg/mL in a fixed volume of water (1% final concentration). […] Experiments were done in triplicate.
# Pseudomonas aeruginosa = test system: Pseudomonas aeruginosa
# Procedure: (§3) The minimal inhibitory concentrations (MIC) were determined according to the Clinical and Laboratory Standards Institute (CLSI) conditions guidelines detailed in Table 7. Assays were performed in triplicate.
# (§4) Preparation of Inocula. Five to 10 well-isolated colonies were picked and resuspended in 3 ml sterile saline. The inoculum was re-suspended by vigorous shaking on a vortex mixer for 15 s. Turbidity was adjusted to McFarland standard 0.5 ([…]). The inoculum was further diluted in the appropriate media (Table 7) to give a final inoculum in each well of ˜2-8×10^5 CFU/ml.
# (§5) Addition of Test Article. Stock solutions of Odilomycin A or comparator were diluted in the appropriate media to give a maximum starting concentration of 50 μg/mL in the assay. 50 μL of medium was dispensed into each well in columns two to 12 of a 96 well plate. 100 μL of the appropriate test compound solution (100 μg/mL) was dispensed into each well in column one. In the case of M. catarrhalis, M. haemolytica and P. multocida these values were doubled (a final assay volume of 200 μL was used). […] Columns 11 and 12 served as positive (no drug or test article, inoculum added), and negative (no drug, test article, or inoculum added) growth controls respectively.
# (§6) Addition of Bacterial Strains. 50 μL of each inoculum suspension was added to the appropriate wells, resulting in a final volume of 100 μL consisting of 50 μL diluted compound or diluents, and 50 μL of inoculum or broth alone.
# P. aeruginosa ATCC 27853 [2] = assay: Acute lethal infection in mice; assay type: in vivo, BALB/c mice; conditions: P. aeruginosa infection; Tobramycin […] IP
# Procedure: Female BALB/c mice ordered from Harlan Laboratories (Indianapolis, Ind.) weighing 19-21 g were used in experiments of acute lethal infection. Mice were fully immunocompetent. Infection was induced by inoculating intraperitoneally in mice a bacterial suspension of P. aeruginosa ATCC 27853. The bacterial challenges (8.6 log10 CFU/mouse) were given suspended in 0.1 mL sterile saline. Treatments were administered once 1 hour after challenge via IV injection (Tobramycin was administered via IP injection immediately after challenge) (Table 13). Mortality was tracked out to 2 days post challenge. Animals that remained surviving at the end of the study were humanely euthanized.
# Staphylococcus aureus = assay: microbe, parasite or virus in culture; conditions: Staphylococcus aureus
# Procedure: as §3, §4, §5, §6
# S. aureus = assay: Resistance profile of multiresistant clinical isolates; assay type: cell-based, Staphylococcus aureus; parameters: key: R: resistant; S: sensitive; I: intermediate
# Bacteroides fragilis = assay: microbe, parasite or virus in culture; conditions: Bacteroides fragilis, ATCC25238
# Procedure: as §3, §4, §5, §6
# P. aeruginosa = assay: Resistance profile of multiresistant clinical isolates; assay type: cell-based, Pseudomonas aeruginosa; parameters: key: R: resistant; S: sensitive; I: intermediate
# Klebsiella oxytoca = conditions: K. oxytoca clinical isolate NEB9
# Procedure: as §3, §4, §5, §6
# Klebsiella pneumoniae = test system: Klebsiella pneumoniae
# Procedure: as §3, §4, §5, §6
# Escherichia coli = test system: Escherichia coli
# Procedure: as §3, §4, §5, §6
# Enterobacter cloacae = conditions: E. cloacae clinical isolate 11370
# Procedure: as §3, §4, §5, §6
# [3] = HT29 colon adenocarcinoma cells
# [4] = MRC-5 normal lung fibroblasts, MRC-5 cells
# [5] = S. aureus multiresistant clinical isolate 16666
# [6] = S. aureus multiresistant clinical isolate 20364
# [7] = S. aureus multiresistant clinical isolate 20681
# [8] = S. aureus multiresistant clinical isolate 21840
# [9] = S. aureus multiresistant clinical isolate 23305
molecule,measurement,setting,value
NC[C@H]1O[C@H](O[C@H]2[C@H](O)[C@@H](O[C@H]3O[C@H](CO)[C@@H](O)[C@H](N)[C@H]3O)[C@H](N)C[C@@H]2N)[C@H](O)[C@@H](O)[C@@H]1O [Kanamycin],MIC antibiotic alone,K. pneumoniae ATCC 43816,1.56 µg/mL
same,Combinations Odilomycin/antibiotic: Odilomycin concentration,K. pneumoniae ATCC 43816; K. pneumoniae ATCC 43816,6.25 µg/mL
same,Combinations Odilomycin/antibiotic: antibiotic concentration,"K. pneumoniae ATCC 43816; K. pneumoniae ATCC 43816, antibiotic part of the inhibitory combination with Odilomycin A",0.39 µg/mL
same,MIC antibiotic alone,S. aureus ATCC 25923,0.62 µg/mL
"N=C(N)NCC/C=C(\NC(=O)C(CCCCN)NC(=O)C(Cc1cnc[nH]1)NC(=O)C1CCCN1C(=O)C(CCCN)NC(=O)CNC(=O)C(NC(=O)C(NC(=O)C(N)CCCCN)C(O)CN)C(O)CN)C(=O)NC(CCC(O)CN)C(=O)NCCCCN (stereo not drawn) [Odilomycin B, Lys-(3-hydroxy-2,4-diaminobutanoic acid)-(3-hydroxy-2,4-diaminobutanoic acid)-Gly-Ornithine-Pro-His-Lys-(2,3-dehydroarginine)-(5-hydroxylysine)-(1,4-diaminobutane)] (H-K[ξDab(3-OH)][ξDab(3-OH)]G[Orn]PHK[ΔZArg][X1]-{NH(CH2)4NH2}; configuration not given here)",MBC,S. aureus ATCC 13709,0.78 µg/mL
same,MBC,P. aeruginosa ATCC 27853 [1],3.12 µg/mL
same,CC50 at 72 h,Cytotoxicity test (MTS); [3],> 100 µg/mL
same,viability at 72 h,Cytotoxicity test (MTS); [3],100%
same,CC50 at 72 h,Cytotoxicity test (MTS); [4],> 100 µg/mL
same,viability at 72 h,Cytotoxicity test (MTS); [4],100%
"N=C(N)NCC/C=C(\NC(=O)C(CCCCN)NC(=O)C(Cc1cnc[nH]1)NC(=O)C1CCCN1C(=O)C(CCCN)NC(=O)CNC(=O)C(NC(=O)C(NC(=O)C(N)CCCCN)C(O)CN)C(O)CN)C(=O)NC(CCCCN)C(=O)NCCCCN (stereo not drawn) [Odilomycin C, Lys-(3-hydroxy-2,4-diaminobutanoic acid)-(3-hydroxy-2,4-diaminobutanoic acid)-Gly-Ornithine-Pro-His-Lys-(2,3-dehydroarginine)-Lys-(1,4-diaminobutane)] (H-K[ξDab(3-OH)][ξDab(3-OH)]G[Orn]PHK[ΔZArg]K-{NH(CH2)4NH2}; configuration not given here)",MIC,Pseudomonas aeruginosa,6.25 µg/mL
same,MBC,S. aureus ATCC 13709,1.56 µg/mL
same,MBC,P. aeruginosa ATCC 27853 [1],12.5 µg/mL
same,CC50 at 72 h,Cytotoxicity test (MTS); [3],> 100 µg/mL
same,viability at 72 h,Cytotoxicity test (MTS); [3],100%
same,CC50 at 72 h,Cytotoxicity test (MTS); [4],> 100 µg/mL
same,viability at 72 h,Cytotoxicity test (MTS); [4],100%
"NC[C@H]1O[C@H](O[C@H]2[C@H](O)[C@@H](O[C@H]3O[C@H](CO)[C@@H](O)[C@H](N)[C@H]3O)[C@H](N)C[C@@H]2N)[C@H](N)C[C@@H]1O [Tobramycin, reference compound]",Survival of all treated mice,P. aeruginosa ATCC 27853 [2],survived up to 5 days after infection
"CN[C@H](CC(C)C)C(=O)N[C@H]1C(=O)N[C@@H](CC(N)=O)C(=O)N[C@H]2C(=O)N[C@H]3C(=O)N[C@H](C(=O)N[C@H](C(=O)O)c4cc(O)cc(O)c4-c4cc3ccc4O)[C@H](O)c3ccc(c(Cl)c3)Oc3cc2cc(c3O[C@@H]2O[C@H](CO)[C@@H](O)[C@H](O)[C@H]2O[C@H]2C[C@](C)(N)[C@H](O)[C@H](C)O2)Oc2ccc(cc2Cl)[C@H]1O [Vancomycin, vancomycin]",MIC,Staphylococcus aureus; ATCC13709,0.78 µg/mL
same,MIC,Staphylococcus aureus; ATCC25923,0.78 µg/mL
same,MIC,Staphylococcus aureus; ATCCBAA1556 / USA300,0.78 µg/mL
same,MIC antibiotic alone,S. aureus ATCC 25923,0.78 µg/mL
same,Susceptibility of isolate to antibacterial (R/S/I),S. aureus; [5],S
same,Susceptibility of isolate to antibacterial (R/S/I),S. aureus; [6],S
same,Susceptibility of isolate to antibacterial (R/S/I),S. aureus; [7],S
same,Susceptibility of isolate to antibacterial (R/S/I),S. aureus; [8],S
same,Susceptibility of isolate to antibacterial (R/S/I),S. aureus; [9],S
"Cc1ncc([N+](=O)[O-])n1CCO [metronidazole, reference compound]",MIC,Bacteroides fragilis,0.39 µg/mL
Gentamicin,Susceptibility of isolate to antibacterial (R/S/I),P. aeruginosa; P. aeruginosa multiresistant clinical isolate 5618,R
same,Susceptibility of isolate to antibacterial (R/S/I),P. aeruginosa; P. aeruginosa multiresistant clinical isolate 35170,R
same,Susceptibility of isolate to antibacterial (R/S/I),P. aeruginosa; P. aeruginosa multiresistant clinical isolate 42162,R
same,Susceptibility of isolate to antibacterial (R/S/I),P. aeruginosa; P. aeruginosa multiresistant clinical isolate 401681,R
same,Susceptibility of isolate to antibacterial (R/S/I),P. aeruginosa; P. aeruginosa multiresistant clinical isolate 512232,R
same,MIC antibiotic alone,K. pneumoniae ATCC 43816,0.39 µg/mL
same,Combinations Odilomycin/antibiotic: Odilomycin concentration,K. pneumoniae ATCC 43816; K. pneumoniae ATCC 43816,3.12 µg/mL
same,Synergy with Odilomycin A,"K. pneumoniae ATCC 43816; K. pneumoniae ATCC 43816, labelled antibiotic combined with Odilomycin A",synergistic interaction
same,MIC antibiotic alone,S. aureus ATCC 25923,0.078 µg/mL
same,Combinations Odilomycin/antibiotic: Odilomycin concentration,"S. aureus ATCC 25923; S. aureus ATCC 25923, Odilomycin A part of the inhibitory combination with the labelled antibiotic",0.19 µg/mL
same,Combinations Odilomycin/antibiotic: antibiotic concentration,"S. aureus ATCC 25923; S. aureus ATCC 25923, antibiotic part of the inhibitory combination with Odilomycin A",0.039 µg/mL
same,Synergy with Odilomycin A,"S. aureus ATCC 25923; S. aureus ATCC 25923, labelled antibiotic combined with Odilomycin A",synergistic interaction
same,Susceptibility of isolate to antibacterial (R/S/I),S. aureus; [5],R
same,Susceptibility of isolate to antibacterial (R/S/I),S. aureus; [6],S
same,Susceptibility of isolate to antibacterial (R/S/I),S. aureus; [7],S
same,Susceptibility of isolate to antibacterial (R/S/I),S. aureus; [8],S
same,Susceptibility of isolate to antibacterial (R/S/I),S. aureus; [9],R
polymyxin [reference compound],MIC,Klebsiella oxytoca,0.39^c μg/mL
same,MIC,Klebsiella pneumoniae; K. pneumoniae ATCC 43816,0.39^c μg/mL
same,MIC,Klebsiella pneumoniae; K. pneumoniae KPC clinical isolate 2475,0.78^c μg/mL
same,MIC,Pseudomonas aeruginosa; P. aeruginosa ATCC 27853,0.39^c μg/mL
same,MIC,Escherichia coli; E. coli ATCC 25922,0.39^c μg/mL
same,MIC,Escherichia coli; E. coli CTX-M14 clinical isolate AEC7,0.39^c μg/mL
same,MIC,Escherichia coli; E. coli CTX-M15 clinical isolate MEC23,0.39^c μg/mL
same,MIC,Escherichia coli; E. coli TEM clinical isolate MEC12,0.39^c μg/mL
same,MIC,Enterobacter cloacae,0.78^c μg/mL
